Results reported in ChEMBL document CHEMBL4507282, “Data for DCP probe BI-1950” (2021).

Key:
[1] = target: Ephrin type-A receptor 2 (Homo sapiens) (UniProt P29317); conditions: Compound concentration 1000.0 nM
[2] = target: Mitogen-activated protein kinase 7 (Homo sapiens) (UniProt Q13164); conditions: Compound concentration 1000.0 nM
[3] = target: Mitogen-activated protein kinase kinase kinase 7 (Homo sapiens) (UniProt O43318); conditions: Compound concentration 1000.0 nM
[4] = target: Phosphatidylinositol 3-kinase C2 domain-containing subunit gamma (Homo sapiens) (UniProt O75747); conditions: Compound concentration 1000.0 nM
Sequence of Phosphatidylinositol 3-kinase C2 domain-containing subunit gamma (Homo sapiens) (O75747 whole entry, the tested form may be a part): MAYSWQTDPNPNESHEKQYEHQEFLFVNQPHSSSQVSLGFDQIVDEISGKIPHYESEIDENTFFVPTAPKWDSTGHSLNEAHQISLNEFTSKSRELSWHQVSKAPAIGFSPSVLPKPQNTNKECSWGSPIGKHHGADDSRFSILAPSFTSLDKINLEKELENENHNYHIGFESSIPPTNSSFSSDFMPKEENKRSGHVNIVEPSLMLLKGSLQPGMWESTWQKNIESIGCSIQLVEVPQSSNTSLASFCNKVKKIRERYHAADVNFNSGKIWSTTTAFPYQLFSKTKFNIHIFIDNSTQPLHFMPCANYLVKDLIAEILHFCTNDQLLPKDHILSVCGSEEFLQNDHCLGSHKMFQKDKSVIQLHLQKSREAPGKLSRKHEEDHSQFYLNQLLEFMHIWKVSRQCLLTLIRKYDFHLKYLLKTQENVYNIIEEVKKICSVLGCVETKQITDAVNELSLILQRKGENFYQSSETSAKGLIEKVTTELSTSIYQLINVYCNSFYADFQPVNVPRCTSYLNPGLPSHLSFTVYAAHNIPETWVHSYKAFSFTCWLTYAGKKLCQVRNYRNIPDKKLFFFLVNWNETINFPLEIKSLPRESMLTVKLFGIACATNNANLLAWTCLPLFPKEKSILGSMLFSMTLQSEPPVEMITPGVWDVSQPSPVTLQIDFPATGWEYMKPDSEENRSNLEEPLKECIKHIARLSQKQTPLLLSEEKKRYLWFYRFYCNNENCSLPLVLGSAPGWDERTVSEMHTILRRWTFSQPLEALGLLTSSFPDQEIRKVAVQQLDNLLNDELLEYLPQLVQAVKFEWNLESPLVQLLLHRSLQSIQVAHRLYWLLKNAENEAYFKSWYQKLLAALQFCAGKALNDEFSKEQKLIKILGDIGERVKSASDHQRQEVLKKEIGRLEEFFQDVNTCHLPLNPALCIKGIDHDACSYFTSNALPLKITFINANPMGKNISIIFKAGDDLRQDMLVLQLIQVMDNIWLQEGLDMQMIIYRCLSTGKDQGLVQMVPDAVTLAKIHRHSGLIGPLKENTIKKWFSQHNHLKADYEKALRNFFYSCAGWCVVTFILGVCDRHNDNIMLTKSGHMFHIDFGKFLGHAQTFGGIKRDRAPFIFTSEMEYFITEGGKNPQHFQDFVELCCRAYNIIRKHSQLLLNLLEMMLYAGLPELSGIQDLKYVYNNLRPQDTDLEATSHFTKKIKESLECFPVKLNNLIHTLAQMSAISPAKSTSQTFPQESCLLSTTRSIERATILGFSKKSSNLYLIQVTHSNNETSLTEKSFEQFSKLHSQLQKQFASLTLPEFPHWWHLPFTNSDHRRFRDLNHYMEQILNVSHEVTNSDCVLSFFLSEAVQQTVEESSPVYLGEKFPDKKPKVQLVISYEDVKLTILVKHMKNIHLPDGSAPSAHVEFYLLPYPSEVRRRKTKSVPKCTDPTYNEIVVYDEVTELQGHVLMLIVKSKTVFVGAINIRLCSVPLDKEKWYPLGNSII

[5] = target: Serine/threonine-protein kinase 36 (Homo sapiens) (UniProt Q9NRP7); conditions: Compound concentration 1000.0 nM
[6] = target: Testis-specific serine/threonine-protein kinase 3 (Homo sapiens) (UniProt Q96PN8); conditions: Compound concentration 1000.0 nM
[7] = target: Tyrosine-protein kinase ITK/TSK (Homo sapiens) (UniProt Q08881); conditions: Compound concentration 1000.0 nM
[8] = target: Tyrosine-protein kinase Mer (Homo sapiens) (UniProt Q12866); conditions: Compound concentration 1000.0 nM
[9] = target: Tyrosine-protein kinase Fgr (Homo sapiens) (UniProt P09769); conditions: Compound concentration 1000.0 nM
[10] = target: Serine/threonine-protein kinase SIK2 (Homo sapiens) (UniProt Q9H0K1); conditions: Compound concentration 1000.0 nM
[11] = tested on: Epidermal growth factor receptor (Homo sapiens), P00533 [UNDEFINED MUTATION]; conditions: Compound concentration 1000.0 nM
[12] = target: Ephrin type-B receptor 3 (Homo sapiens) (UniProt P54753); conditions: Compound concentration 1000.0 nM
[13] = target: Tyrosine-protein kinase TXK (Homo sapiens) (UniProt P42681); conditions: Compound concentration 1000.0 nM
[14] = target: Ephrin type-A receptor 5 (Homo sapiens) (UniProt P54756); conditions: Compound concentration 1000.0 nM
Sequence of Ephrin type-A receptor 5 (Homo sapiens) (P54756 whole entry): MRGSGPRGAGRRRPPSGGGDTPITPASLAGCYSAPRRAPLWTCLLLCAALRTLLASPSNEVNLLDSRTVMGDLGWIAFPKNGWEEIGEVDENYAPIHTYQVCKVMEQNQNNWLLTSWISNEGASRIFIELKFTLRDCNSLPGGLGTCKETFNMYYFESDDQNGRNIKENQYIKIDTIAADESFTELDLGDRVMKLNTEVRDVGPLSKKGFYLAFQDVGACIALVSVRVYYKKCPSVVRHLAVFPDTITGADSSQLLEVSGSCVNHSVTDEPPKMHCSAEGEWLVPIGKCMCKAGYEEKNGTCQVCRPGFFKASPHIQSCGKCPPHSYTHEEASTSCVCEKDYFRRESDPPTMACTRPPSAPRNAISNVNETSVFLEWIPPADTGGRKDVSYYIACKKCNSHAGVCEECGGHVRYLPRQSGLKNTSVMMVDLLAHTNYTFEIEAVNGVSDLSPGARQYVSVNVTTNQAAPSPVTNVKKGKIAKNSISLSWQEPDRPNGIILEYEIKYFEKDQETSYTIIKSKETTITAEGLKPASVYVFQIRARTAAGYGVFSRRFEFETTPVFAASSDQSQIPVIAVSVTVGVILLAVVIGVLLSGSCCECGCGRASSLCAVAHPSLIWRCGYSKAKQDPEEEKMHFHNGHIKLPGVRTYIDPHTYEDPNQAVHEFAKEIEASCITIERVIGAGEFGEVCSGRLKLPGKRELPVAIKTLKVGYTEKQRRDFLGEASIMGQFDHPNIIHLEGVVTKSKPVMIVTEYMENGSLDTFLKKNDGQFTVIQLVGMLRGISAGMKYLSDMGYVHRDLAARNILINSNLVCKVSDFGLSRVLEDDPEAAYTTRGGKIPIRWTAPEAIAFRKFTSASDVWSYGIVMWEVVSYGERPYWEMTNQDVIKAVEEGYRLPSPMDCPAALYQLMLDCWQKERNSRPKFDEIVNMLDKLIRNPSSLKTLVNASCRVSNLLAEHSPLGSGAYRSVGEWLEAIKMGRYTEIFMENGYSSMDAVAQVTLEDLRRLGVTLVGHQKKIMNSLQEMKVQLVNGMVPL

[15] = target: Serine/threonine-protein kinase ULK2 (Homo sapiens) (UniProt Q8IYT8); conditions: Compound concentration 1000.0 nM
[16] = target: Calcium/calmodulin-dependent protein kinase kinase 1 (Homo sapiens) (UniProt Q8N5S9); conditions: Compound concentration 1000.0 nM
[17] = target: Serine/threonine-protein kinase ULK3 (Homo sapiens) (UniProt Q6PHR2); conditions: Compound concentration 1000.0 nM
[18] = target: Serine/threonine-protein kinase SBK1 (Homo sapiens) (UniProt Q52WX2); conditions: Compound concentration 1000.0 nM
[19] = target: Uncharacterized serine/threonine-protein kinase SBK3 (Homo sapiens) (UniProt P0C264); conditions: Compound concentration 1000.0 nM
[20] = target: Macrophage colony-stimulating factor 1 receptor (Homo sapiens) (UniProt P07333); conditions: Compound concentration 1000.0 nM
[21] = target: Serine/threonine-protein kinase 17A (Homo sapiens) (UniProt Q9UEE5); conditions: Compound concentration 1000.0 nM
Sequence of Serine/threonine-protein kinase 17A (Homo sapiens) (Q9UEE5 whole entry): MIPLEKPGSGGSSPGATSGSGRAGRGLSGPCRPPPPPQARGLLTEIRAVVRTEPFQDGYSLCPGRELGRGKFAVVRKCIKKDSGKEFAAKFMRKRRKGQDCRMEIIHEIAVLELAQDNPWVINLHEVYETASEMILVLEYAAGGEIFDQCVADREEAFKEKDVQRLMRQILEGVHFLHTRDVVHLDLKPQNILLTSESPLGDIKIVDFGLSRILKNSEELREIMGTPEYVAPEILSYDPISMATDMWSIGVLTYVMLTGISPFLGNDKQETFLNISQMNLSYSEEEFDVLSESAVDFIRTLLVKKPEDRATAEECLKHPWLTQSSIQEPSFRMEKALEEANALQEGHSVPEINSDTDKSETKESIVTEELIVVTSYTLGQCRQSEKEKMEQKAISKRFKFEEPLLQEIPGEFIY

[22] = target: Bone morphogenetic protein receptor type-1B (Homo sapiens) (UniProt O00238); conditions: Compound concentration 1000.0 nM
[23] = target: Leukocyte tyrosine kinase receptor (Homo sapiens) (UniProt P29376); conditions: Compound concentration 1000.0 nM
[24] = target: D(3) dopamine receptor (Homo sapiens) (UniProt P35462); conditions: Compound concentration 10.0 uM
[25] = target: Dual specificity tyrosine-phosphorylation-regulated kinase 1A (Homo sapiens) (UniProt Q13627); conditions: Compound concentration 1000.0 nM
[26] = target: Tyrosine-protein kinase ABL2 (Homo sapiens) (UniProt P42684); conditions: Compound concentration 1000.0 nM
Sequence of Tyrosine-protein kinase ABL2 (Homo sapiens) (P42684 whole entry): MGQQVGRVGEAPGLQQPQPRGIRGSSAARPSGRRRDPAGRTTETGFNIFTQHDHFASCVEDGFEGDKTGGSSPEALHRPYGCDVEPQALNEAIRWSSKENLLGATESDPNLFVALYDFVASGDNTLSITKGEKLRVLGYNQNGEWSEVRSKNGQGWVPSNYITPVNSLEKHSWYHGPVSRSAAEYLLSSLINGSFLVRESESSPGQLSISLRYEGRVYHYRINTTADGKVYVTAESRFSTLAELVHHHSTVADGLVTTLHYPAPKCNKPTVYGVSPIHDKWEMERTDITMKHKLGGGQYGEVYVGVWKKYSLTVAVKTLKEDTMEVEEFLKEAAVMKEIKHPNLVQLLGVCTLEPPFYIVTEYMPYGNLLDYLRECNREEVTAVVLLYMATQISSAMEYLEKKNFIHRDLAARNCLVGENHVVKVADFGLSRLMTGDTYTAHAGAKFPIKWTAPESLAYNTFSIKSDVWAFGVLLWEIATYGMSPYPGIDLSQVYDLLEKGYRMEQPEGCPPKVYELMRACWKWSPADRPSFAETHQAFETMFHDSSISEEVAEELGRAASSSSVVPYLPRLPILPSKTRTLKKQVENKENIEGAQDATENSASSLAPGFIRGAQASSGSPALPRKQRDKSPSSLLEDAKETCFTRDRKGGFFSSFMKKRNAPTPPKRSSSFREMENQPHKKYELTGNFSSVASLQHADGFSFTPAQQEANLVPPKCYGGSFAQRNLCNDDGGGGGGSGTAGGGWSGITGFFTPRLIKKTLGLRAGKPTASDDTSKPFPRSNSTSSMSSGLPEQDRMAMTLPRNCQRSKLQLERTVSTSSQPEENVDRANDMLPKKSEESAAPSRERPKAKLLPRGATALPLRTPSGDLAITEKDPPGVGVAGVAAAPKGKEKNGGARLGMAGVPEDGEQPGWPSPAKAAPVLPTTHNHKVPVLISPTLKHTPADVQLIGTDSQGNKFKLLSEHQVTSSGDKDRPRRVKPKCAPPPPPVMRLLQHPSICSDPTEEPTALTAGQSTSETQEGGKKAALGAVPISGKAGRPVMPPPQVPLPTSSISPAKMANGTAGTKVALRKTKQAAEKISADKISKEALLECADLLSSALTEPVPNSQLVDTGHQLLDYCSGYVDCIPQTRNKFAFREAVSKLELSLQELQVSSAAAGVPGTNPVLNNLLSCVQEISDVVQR

[27] = target: Serine/threonine-protein kinase 4 (Homo sapiens) (UniProt Q13043); conditions: Compound concentration 1000.0 nM
[28] = target: Homeodomain-interacting protein kinase 3 (Homo sapiens) (UniProt Q9H422); conditions: Compound concentration 1000.0 nM
[29] = target: Mitogen-activated protein kinase kinase kinase 6 (Homo sapiens) (UniProt O95382); conditions: Compound concentration 1000.0 nM
[30] = target: BMP-2-inducible protein kinase (Homo sapiens) (UniProt Q9NSY1); conditions: Compound concentration 1000.0 nM
[31] = target: Serine/threonine-protein kinase 25 (Homo sapiens) (UniProt O00506); conditions: Compound concentration 1000.0 nM
[32] = target: Phosphorylase b kinase gamma catalytic chain, skeletal muscle/heart isoform (Homo sapiens) (UniProt Q16816); conditions: Compound concentration 1000.0 nM
[33] = target: 5-hydroxytryptamine receptor 2B (Homo sapiens) (UniProt P41595); conditions: Compound concentration 10.0 uM
[34] = tested on: Phosphatidylinositol 4,5-bisphosphate 3-kinase catalytic subunit alpha isoform (Homo sapiens), P42336 [M1043I]; conditions: Compound concentration 1000.0 nM
[35] = target: Casein kinase I isoform gamma-1 (Homo sapiens) (UniProt Q9HCP0); conditions: Compound concentration 1000.0 nM
[36] = target: Tyrosine-protein kinase ZAP-70 (Homo sapiens) (UniProt P43403); conditions: Compound concentration 1000.0 nM
[37] = target: Histamine H4 receptor (Homo sapiens) (UniProt Q9H3N8); conditions: Compound concentration 10.0 uM
[38] = target: Serine/threonine-protein kinase PLK1 (Homo sapiens) (UniProt P53350); conditions: Compound concentration 1000.0 nM
[39] = target: cAMP-dependent protein kinase catalytic subunit beta (Homo sapiens) (UniProt P22694); conditions: Compound concentration 1000.0 nM
[40] = target: Ribosomal protein S6 kinase alpha-3 (Homo sapiens) (UniProt P51812); conditions: Compound concentration 1000.0 nM
[41] = target: Serine/threonine-protein kinase 35 (Homo sapiens) (UniProt Q8TDR2); conditions: Compound concentration 1000.0 nM
[42] = target: NUAK family SNF1-like kinase 2 (Homo sapiens) (UniProt Q9H093); conditions: Compound concentration 1000.0 nM
[43] = tested on: Epidermal growth factor receptor (Homo sapiens), P00533 [L858R,T790M]; conditions: Compound concentration 1000.0 nM
[44] = target: Vascular endothelial growth factor receptor 1 (Homo sapiens) (UniProt P17948); conditions: Compound concentration 1000.0 nM
[45] = target: Serine/threonine-protein kinase Nek3 (Homo sapiens) (UniProt P51956); conditions: Compound concentration 1000.0 nM

Sequence of Mitogen-activated protein kinase 7 (Homo sapiens) (Q13164 2-816 limits assumed): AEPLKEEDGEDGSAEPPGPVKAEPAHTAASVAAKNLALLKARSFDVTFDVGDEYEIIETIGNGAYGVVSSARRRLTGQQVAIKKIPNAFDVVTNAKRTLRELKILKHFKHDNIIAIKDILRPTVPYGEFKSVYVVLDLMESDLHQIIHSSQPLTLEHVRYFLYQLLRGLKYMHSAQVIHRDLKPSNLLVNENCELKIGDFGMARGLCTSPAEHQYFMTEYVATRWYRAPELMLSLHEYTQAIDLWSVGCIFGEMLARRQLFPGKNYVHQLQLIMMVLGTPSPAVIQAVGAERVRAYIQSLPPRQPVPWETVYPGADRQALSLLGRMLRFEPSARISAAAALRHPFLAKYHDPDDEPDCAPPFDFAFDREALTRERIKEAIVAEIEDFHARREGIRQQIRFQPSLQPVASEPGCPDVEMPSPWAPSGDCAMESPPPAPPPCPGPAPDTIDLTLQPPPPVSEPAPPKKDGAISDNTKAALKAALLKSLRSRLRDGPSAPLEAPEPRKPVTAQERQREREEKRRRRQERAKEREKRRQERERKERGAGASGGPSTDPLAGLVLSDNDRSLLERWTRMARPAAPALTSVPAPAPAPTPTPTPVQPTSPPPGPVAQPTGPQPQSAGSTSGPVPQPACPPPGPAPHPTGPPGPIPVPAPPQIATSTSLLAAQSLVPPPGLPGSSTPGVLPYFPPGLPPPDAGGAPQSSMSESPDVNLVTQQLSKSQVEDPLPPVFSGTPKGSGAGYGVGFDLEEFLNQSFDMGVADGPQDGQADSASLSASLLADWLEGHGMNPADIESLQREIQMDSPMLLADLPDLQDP

C[C@H](NC(=O)c1cnc2n1[C@](C)(Cc1ccc(C#N)cc1)C(=O)N2c1cc(Cl)c(F)c(Cl)c1)C(=O)NC1(c2ccccn2)CC1 [BI 1950]
inactive: residual activity [1] 75% | residual activity [2] 100% | residual activity [3] 97% | residual activity [4] 100% | residual activity [5] 100% | residual activity [6] 100% | residual activity [7] 83% | residual activity [8] 99% | residual activity [9] 100% | residual activity [10] 100% | residual activity [11] 100% | residual activity [12] 100% | residual activity [13] 90% | residual activity [14] 100% | residual activity [15] 100% | residual activity [16] 100% | residual activity [17] 100% | residual activity [18] 100% | residual activity [19] 100% | residual activity [20] 100% | residual activity [21] 100% | residual activity [22] 99% | residual activity [23] 100% | inhibition [24] -3.54% | residual activity [25] 100% | residual activity [26] 83% | residual activity [27] 100% | residual activity [28] 100% | residual activity [29] 100% | residual activity [30] 100% | residual activity [31] 100% | residual activity [32] 100% | inhibition [33] 17.2% | residual activity [34] 100% | residual activity [35] 99% | residual activity [36] 100% | inhibition [37] 9.55% | residual activity [38] 100% | residual activity [39] 75% | residual activity [40] 100% | residual activity [41] 100% | residual activity [42] 100% | residual activity [43] 82% | residual activity [44] 100% | residual activity [45] 100%

C[C@@]1(Cc2ccc(C#N)cc2)C(=O)N(c2cc(Cl)cc(Cl)c2)c2ncc(C(=O)NC3(c4nc(C5CCC5)no4)CC3)n21 [BI 9446]
inactive: residual activity [1] 56% | residual activity [2] 100% | residual activity [3] 96% | residual activity [4] 100% | residual activity [5] 100% | residual activity [6] 100% | residual activity [7] 92% | residual activity [8] 100% | residual activity [9] 100% | residual activity [10] 100% | residual activity [11] 100% | residual activity [12] 99% | residual activity [13] 100% | residual activity [14] 100% | residual activity [15] 100% | residual activity [16] 100% | residual activity [17] 100% | residual activity [18] 95% | residual activity [19] 100% | residual activity [20] 100% | residual activity [21] 91% | residual activity [22] 100% | residual activity [23] 100% | inhibition [24] 9.55% | residual activity [25] 99% | residual activity [26] 78% | residual activity [27] 92% | residual activity [28] 100% | residual activity [29] 82% | residual activity [30] 100% | residual activity [31] 100% | residual activity [32] 100% | inhibition [33] 15.5% | residual activity [34] 100% | residual activity [35] 92% | residual activity [36] 90% | inhibition [37] 27.6% | residual activity [38] 100% | residual activity [39] 100% | residual activity [40] 100% | residual activity [41] 100% | residual activity [42] 100% | residual activity [43] 79% | residual activity [44] 99% | residual activity [45] 100%
